Experimental data from patent US8808728B2, “Feed additive for laying hen and feed containing the same” (Unitika Ltd., priority 2004, dated 2014).
Like-named read-outs stand apart in the source and are kept apart here.

Assays:
[1] = Solubility in water of calcium salts; assay type: physicochemical
Source text: The solubility in water of the calcium lactobionate thus obtained was compared with those of other calcium salts (manufactured by Wako Pure Chemical Industries).

laying hens [2] = experiment: Test Example 4: feeding of feeds of Examples 12 to 14 to laying hens aged 500 days for 60 days; assay type: in vivo; conditions: Boris Brown hens aged 500 days, fed 60 days
Description: (§1) Ten laying hens aged 470 days (laying white leghorn hens (Julia)) were fed with each of the feeds prepared in Examples 2 to 5 for 60 days and the egg-laying rate, the egg breakage and egg cracking rate and eggshell strength were measured. The egg-laying rate was determined in accordance with the following Equation 1, while the egg breakage and egg cracking rate were determined in accordance with the following Equation 2. Eggshell strength was determined by horizontally placing an egg and measuring the bursting strength with a rheometer. A feed containing no feed additive for laying hens was also prepared as a control. […] Egg-laying rate=(total number of eggs in each test lot/total number of eggs in control lot)×100 [Equation 1] Egg breakage/cracking rate=(number of broken or cracked eggs/total number of eggs yield)×100 [Equation 2]
Four laying hens aged 500 days (Boris Brown) were fed with each of the feeds prepared in Examples 12 to 14 for 60 days and the egg-laying rate and the eggshell strength were measured in the same manner as in Examples 2 to 5. […]

laying hens [3] = assay type: in vivo; conditions: feed without calcium carbonate and di-lime phosphate; hens aged 470 days, fed 60 days
Description: as §1
Ten laying hens aged 470 days (laying white leghorn hens (Julia)) were fed with each of the feeds prepared in Examples 10 and 11 for 60 days and the egg-laying rate, the egg breakage and egg cracking rate and eggshell strength were measured in the same manner as in Examples 2 to 5. […]

Solubilities in water [1] [g/100 mL] | SMILES | Solubilities in water ([1]; water) [g/100 mL] | Eggshell strength (laying hens [2]) | Eggshell strength (laying hens [3])
– | O=C([O-])[C@H](O)[C@@H](O)[C@H](O)[C@H](O)CO.O=C([O-])[C@H](O)[C@@H](O)[C@H](O)[C@H](O)CO.[Ca+2] [Ca gluconate, reference compound] | 3.8 | – | –
>40 | O=C([O-])[C@H](O)[C@@H](O)[C@H](O[C@@H]1O[C@H](CO)[C@H](O)[C@H](O)[C@H]1O)[C@H](O)CO.O=C([O-])[C@H](O)[C@@H](O)[C@H](O[C@@H]1O[C@H](CO)[C@H](O)[C@H](O)[C@H]1O)[C@H](O)CO.[Ca+2] [Ca lactobionate, calcium lactobionate] | – | eggshell reinforcing effect could be obtained | showed an effect of reinforcing eggshells
